The values that follow come from ChEMBL document CHEMBL4477261, “Design, synthesis and evaluation of the multidrug resistance-reversing activity of pyridine acid esters of podophyllotoxin in human leukemia cells” (Bioorg Med Chem Lett, 2016).

Structures can show the parent of a compound that is named as a salt. Activity calls are given as the source filed them. The rule behind the calls is not given here.

The subject of data set [1] is K562. In words: Resistance factor, ratio of IC50 for human K562/ADR cells to IC50 for human K562 cells. The class given is functional.
Data set [2] has as its system K562. The experiment in a line: Antiproliferative activity against human K562 cells after 72 hrs by CCK8 assay. As to conditions: K562, 72 h. It counts as functional, cell-based.
The test system of data set [3] is K562/Adr. In words: Antiproliferative activity against human K562/ADR cells after 72 hrs by CCK8 assay. It counts as functional, cell-based. (Formazan colour is commonly taken as a measure of viable cells.)
Data set [4] relates to K562/Adr. In words: Induction of apoptosis in human K562/ADR cells assessed as nuclear fragmentation at 0.05 uM after 48 hrs by Hoechst 33342 staining based fluorescent microscopic analysis. The class given is functional, cell-based.
For data set [5], the system named is K562/Adr. In words: Induction of apoptosis in human K562/ADR cells assessed as live cells at 0.05 uM after 48 hrs by Annexin V-APC/7-AAD staining based flow cytometry (reference value: 91.65%). The class given is functional.
In data set [6] the target is T1, Mitogen-activated protein kinase; ERK1/ERK2 (Homo sapiens) (UniProt P27361+P28482). In words: Activation of ERK1/2 signalling in human K562/ADR cells assessed as increase in cleaved caspase-9 expression at 0.05 uM after 48 hrs by Western blot analysis relative to control. It counts as cell-based. In general terms: Immunoblotting shows a protein as a band on a membrane.

Data set [7] has as its system K562/Adr. The experiment in a line: Induction of apoptosis in human K562/ADR cells assessed as necrotic cells at 0.05 uM after 48 hrs by Annexin V-APC/7-AAD staining based flow cytometry (reference value: 2.47%). It counts as functional.
For data set [8], the system named is K562/Adr. The experiment in a line: Induction of apoptosis in human K562/ADR cells assessed as late apoptotic cells at 0.05 uM after 48 hrs by Annexin V-APC/7-AAD staining based flow cytometry (reference value: 3.89%). The class given is functional. On the technique in general: A flow cytometer gives signals particle by particle.
The test system of data set [9] is K562/Adr. In words: Effect on total ERK1/2 protein expression level in human K562/ADR cells at 0.05 uM after 48 hrs by Western blot analysis relative to control. It counts as ADME, cell-based.
For data set [10], the target named is T1, Mitogen-activated protein kinase; ERK1/ERK2 (Homo sapiens). The experiment in a line: Activation of ERK1/2 signalling in human K562/ADR cells assessed as increase in cleaved caspase-8 expression at 0.05 uM after 48 hrs by Western blot analysis relative to control. The class given is cell-based.
For data set [11] the target is unchanged. The experiment in a line: Activation of ERK1/2 signalling in human K562/ADR cells assessed as suppression of CyclinB1 protein expression at 0.05 uM after 48 hrs by Western blot analysis relative to control. The class given is cell-based.
Data set [12] deals with K562/Adr. The experiment in a line: Induction of apoptosis in human K562/ADR cells assessed as early apoptotic cells at 0.05 uM after 48 hrs by Annexin V-APC/7-AAD staining based flow cytometry (reference value: 1.99%). It counts as functional.
Data set [13] concerns the target T1, Mitogen-activated protein kinase; ERK1/ERK2 (Homo sapiens). In words: Activation of ERK1/2 signalling in human K562/ADR cells assessed as suppression of P-gp expression at 0.05 uM after 48 hrs by Western blot analysis relative to control. It counts as cell-based.
Data set [14] has as its system K562/Adr. The experiment in a line: Induction of apoptosis in human K562/ADR cells assessed as chromatin condensation at 0.05 uM after 48 hrs by Hoechst 33342 staining based fluorescent microscopic analysis. It counts as functional, cell-based.
Data set [15] addresses T1, Mitogen-activated protein kinase; ERK1/ERK2 (Homo sapiens). The experiment in a line: Activation of ERK1/2 signalling in human K562/ADR cells assessed as increase in cleaved caspase-3 expression at 0.05 uM after 48 hrs by Western blot analysis relative to control. It counts as cell-based.
Data set [16] has the same target. In words: Activation of ERK1/2 signalling in human K562/ADR cells assessed as suppression of CDK1 protein expression at 0.05 uM after 48 hrs by Western blot analysis relative to control. The class given is cell-based.
Data set [17] shares this target. In words: Induction of ERK1/2 phosphorylation in human K562/ADR cells at 0.05 uM after 48 hrs by Western blot analysis relative to control. The class given is cell-based.
Data set [18] concerns K562/Adr. In words: Cell cycle arrest in human K562/ADR cells assessed as accumulation in S phase at 0.05 uM after 48 hrs by propidium iodide staining based flow cytometry. The class given is functional.

T1 sequence (P27361 whole entry, looked up): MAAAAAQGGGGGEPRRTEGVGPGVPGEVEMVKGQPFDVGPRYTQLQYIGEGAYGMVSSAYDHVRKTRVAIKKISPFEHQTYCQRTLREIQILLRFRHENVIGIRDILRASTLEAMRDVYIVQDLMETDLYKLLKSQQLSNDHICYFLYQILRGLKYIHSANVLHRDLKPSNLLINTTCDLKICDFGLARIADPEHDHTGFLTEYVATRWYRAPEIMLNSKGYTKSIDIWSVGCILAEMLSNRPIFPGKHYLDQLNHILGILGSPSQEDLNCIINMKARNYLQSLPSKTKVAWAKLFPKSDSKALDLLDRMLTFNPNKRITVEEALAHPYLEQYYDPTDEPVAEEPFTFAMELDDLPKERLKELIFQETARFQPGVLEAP
T1 sequence (P28482 whole entry, looked up): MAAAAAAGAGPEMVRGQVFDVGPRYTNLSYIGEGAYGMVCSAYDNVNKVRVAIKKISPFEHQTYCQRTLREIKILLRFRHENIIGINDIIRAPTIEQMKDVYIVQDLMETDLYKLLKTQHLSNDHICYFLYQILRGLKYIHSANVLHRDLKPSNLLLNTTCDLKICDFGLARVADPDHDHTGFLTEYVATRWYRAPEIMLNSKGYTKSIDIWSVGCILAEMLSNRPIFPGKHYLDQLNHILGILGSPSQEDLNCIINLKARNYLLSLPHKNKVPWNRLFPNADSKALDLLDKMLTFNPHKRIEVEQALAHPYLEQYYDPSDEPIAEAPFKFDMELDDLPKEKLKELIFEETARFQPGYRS

Consider `COc1cc([C@@H]2c3cc4c(cc3[C@H](OC(=O)c3cccnc3)[C@H]3COC(=O)[C@H]23)OCO4)cc(OC)c1OC` [4-O-PODOPHYLLOTOXINYL-NICOTINATE], for which the “Ratio IC50” value with K562 [1] was found to be 4.151. Besides, the IC50 (as a rule, the concentration needed to halve the response being measured) amounted to 33 nM with K562 [2] and 137 nM in the data set with K562/Adr [3].

On to `COc1cc([C@@H]2c3cc4c(cc3[C@H](OC(=O)c3cccnc3OC)[C@H]3COC(=O)[C@H]23)OCO4)cc(OC)c1OC`, for which the “Ratio IC50” value in the data set on K562 [1] is 3.085. The IC50 was 47 nM in the data set on K562 [2] and 145 nM in the data set on K562/Adr [3].

In the case of `COc1cc([C@@H]2c3cc4c(cc3[C@H](OC(=O)c3ccnc(Br)c3)[C@H]3COC(=O)[C@H]23)OCO4)cc(OC)c1OC`, the “Ratio IC50” value in the data set on K562 [1] stood at 2.521. Besides, the IC50 in the data set with K562 [2] turned out to be 23 nM; in the data set on K562/Adr [3], 58 nM.

For the compound `COc1cc([C@@H]2c3cc4c(cc3[C@H](OC(=O)c3ccc(Br)nc3)[C@H]3COC(=O)[C@H]23)OCO4)cc(OC)c1OC`, in the data set on K562 [1], the “Ratio IC50” value was determined as 1.347. Also, the IC50 was 256 nM in the data set with K562 [2] and 345 nM in the data set on K562/Adr [3].

In the case of `COc1cc([C@@H]2c3cc4c(cc3[C@H](OC(=O)c3ccc(Br)cn3)[C@H]3COC(=O)[C@H]23)OCO4)cc(OC)c1OC`, the “Ratio IC50” value with K562 [1] came out at 8.421. In addition, the IC50 with K562 [2] came to 19 nM; with K562/Adr [3], 160 nM.

Regarding `COc1cc([C@@H]2c3cc4c(cc3[C@H](OC(=O)c3cc(Cl)ccn3)[C@H]3COC(=O)[C@H]23)OCO4)cc(OC)c1OC`, the “Ratio IC50” value with K562 [1] is 3.25. For the same compound, the values for the IC50 with K562 [2] and in the data set on K562/Adr [3] were 16 nM and 52 nM, respectively.

As for `COc1cc([C@@H]2c3cc4c(cc3[C@H](O)[C@H]3COC(=O)[C@H]23)OCO4)cc(OC)c1OC` [PODOFILOX], the result in the data set on K562/Adr [4], in the data set with K562/Adr [14] and in the data set on K562/Adr [18] was Active. Besides, the Activity with K562/Adr [5] came to 40.83%; in the data set on K562/Adr [7] it was 7.73%; in the data set with K562/Adr [8], 43.5%; in the data set with K562/Adr [12] it was 7.94%. The “Ratio IC50” value with K562 [1] was 4.166. For the same compound, the fold change (FC) in data set [6] came to 0.74; in the data set on K562/Adr [9] it was 0.88; in data set [10], 0.7; in data set [11], 0.02; in [13], 0.03; in data set [15], 0.76. The fold change (FC) in [16] worked out at 0.4; in data set [17], 0.63. Half-maximal inhibition in the data set on K562/Adr [3] (IC50) was put at 25 nM.

In the case of `COc1cc([C@@H]2c3cc4c(cc3[C@H](OC(=O)c3ccncc3)[C@H]3COC(=O)[C@H]23)OCO4)cc(OC)c1OC` [4-O-PODOPHYLLOTOXINYL-ISONICOTINATE], the “Ratio IC50” value in the data set with K562 [1] was determined as 4.363. Moreover, the figures for the IC50 with K562 [2] and in the data set with K562/Adr [3] were 11 nM and 48 nM, respectively.

With `COc1cc([C@@H]2c3cc4c(cc3[C@H](OC(=O)c3ccnc(Cl)c3)[C@H]3COC(=O)[C@H]23)OCO4)cc(OC)c1OC`, the “Ratio IC50” value with K562 [1] came out at 2.85. In addition, the IC50 in the data set with K562 [2] turned out to be 20 nM; in the data set on K562/Adr [3], 57 nM.

As for `COc1ccc(C(=O)O[C@H]2c3cc4c(cc3[C@@H](c3cc(OC)c(OC)c(OC)c3)[C@H]3C(=O)OC[C@@H]32)OCO4)cn1`, the “Ratio IC50” value in the data set on K562 [1] is 2.12. For the same compound, the IC50 turned out to be 58 nM in the data set on K562 [2] and 123 nM with K562/Adr [3].

Consider `COc1cccc2c1C(=O)c1c(O)c3c(c(O)c1C2=O)C[C@@](O)(C(=O)CO)C[C@@H]3O[C@H]1C[C@H](N)[C@H](O)[C@H](C)O1` [DOXORUBICIN HYDROCHLORIDE], for which the IC50 was determined as 220 nM in the data set on K562 [2] and 18800 nM in the data set with K562/Adr [3].
